Test results taken from PubChem BioAssay (NCI).
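Here, GI50 denotes the concentration required for 50% inhibition of growth. At the TGI there is no net growth.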

Experiments:
Assay in all cases: NCI anticancer screen, dose series, 384-well format
SK-MEL-2 melanoma = test system: SK-MEL-2 melanoma
SK-OV-3 ovarian = test system: SK-OV-3 ovarian
UACC-62 melanoma = test system: UACC-62 melanoma
SK-MEL-28 melanoma = test system: SK-MEL-28 melanoma
RXF 393 renal = test system: RXF 393 renal
DU-145 prostate = test system: DU-145 prostate
M14 melanoma = test system: M14 melanoma
HOP-62 NSCLC = test system: HOP-62 NSCLC
MDA-MB-435 melanoma = test system: MDA-MB-435 melanoma
SF-295 CNS = test system: SF-295 CNS
IGROV1 ovarian = test system: IGROV1 ovarian
SW-620 colon = test system: SW-620 colon
NCI-H460 NSCLC = test system: NCI-H460 NSCLC
T-47D breast = test system: T-47D breast
MCF7 breast = test system: MCF7 breast
SK-MEL-5 melanoma = test system: SK-MEL-5 melanoma
PC-3 prostate = test system: PC-3 prostate
RPMI-8226 leukemia = test system: RPMI-8226 leukemia
U251 glioblastoma = test system: U251 glioblastoma
SR leukemia = test system: SR leukemia
UACC-257 melanoma = test system: UACC-257 melanoma
NCI-H322M lung = test system: NCI-H322M lung
HT29 colon = test system: HT29 colon
MDA-MB-231 breast = test system: MDA-MB-231 breast

## CC(O)[C@H](NC(=O)N[C@@H](CC(N)=O)c1nc(N2CCNCC2)no1)C(=O)O (some centres not stated)
SK-MEL-2 melanoma
  GI50: > 100 µM
  TGI: > 100 µM
SK-OV-3 ovarian
  GI50: > 100 µM
  TGI: > 100 µM
UACC-62 melanoma
  GI50: > 100 µM
  TGI: > 100 µM
SK-MEL-28 melanoma
  GI50: > 100 µM
  TGI: > 100 µM
RXF 393 renal
  GI50: > 100 µM
  TGI: > 100 µM
DU-145 prostate
  GI50: > 100 µM
  TGI: > 100 µM
M14 melanoma
  GI50: > 100 µM
  TGI: > 100 µM
HOP-62 NSCLC
  GI50: > 100 µM
  TGI: > 100 µM
MDA-MB-435 melanoma
  GI50: > 100 µM
  TGI: > 100 µM
SF-295 CNS
  GI50: > 100 µM
  TGI: > 100 µM
IGROV1 ovarian
  GI50: > 100 µM
  TGI: > 100 µM
SW-620 colon
  GI50: > 100 µM
  TGI: > 100 µM
NCI-H460 NSCLC
  GI50: > 100 µM
  TGI: > 100 µM
T-47D breast
  GI50: > 100 µM
  TGI: > 100 µM
MCF7 breast
  GI50: > 100 µM
  TGI: > 100 µM
SK-MEL-5 melanoma
  GI50: > 100 µM
  TGI: > 100 µM
PC-3 prostate
  GI50: > 100 µM
  TGI: > 100 µM
RPMI-8226 leukemia
  GI50: > 100 µM
  TGI: > 100 µM
U251 glioblastoma
  GI50: > 100 µM
  TGI: > 100 µM
SR leukemia
  GI50: > 100 µM
  TGI: > 100 µM
UACC-257 melanoma
  GI50: > 100 µM
  TGI: > 100 µM
NCI-H322M lung
  GI50: > 100 µM
  TGI: > 100 µM
HT29 colon
  GI50: > 100 µM
  TGI: > 100 µM
MDA-MB-231 breast
  GI50: > 100 µM
